In US5919464A, “Treatment of aberrant cellular states with biomodulators” (University of New Mexico, priority 1993, dated 1999):
Entries after “also recorded” stand apart in the source; their conditions may differ.

Tests used:
[1] = system: human peripheral blood leukocytes (HPBLs); test: HPBL 3H-thymidine incorporation (proliferation); format: cell-based; design: reference not given here
Description: (§1) C. […] This model is used to correlate the effects of biomodulators on the expression of immune response in vitro. The plaque assay disclosed in this reference is used for the determination of the effect of biomodulators on the specificity, class and subclass of individual clones.
(§2) A. Purification of PWM and separation of the differentiative and proliferative functions Pokeweed Mitogen (PWM) and three of its isomitogens, Pa-1 and Pa-5, which are primarily differentiative in nature, and Pa-2 which is primarily proliferative, were prepared according to the method of Waxdal, supra, except that the iso-mitogens were finally purified by isoelectric focusing.

[2] = system: canine glioma cells; test: cytotoxicity, simple survival (T50%) of canine glioma cells; format: cell-based; conditions: Canis lupus familiaris, Glioma cell, read-out: T 50% (50% inhibitory concentration on simple survival)
Procedure: (§3) Cytotoxicity was determined as a function of simple survival (T50%), adherence (ADH50%) and thymidine incorporation (I50%) of the cells.
(§4) Estimates of the 50% inhibitory concentrations of the various drugs tested on simple survival (T50%) and adherence (ADH50%) for canine glioma cells.

[3] = system: canine glioma cells; test: adherence (ADH50%) of canine glioma cells; format: cell-based; conditions: Canis lupus familiaris, Glioma cell
Procedure: as §3, §4

[4] = system: canine glioma cells; test: thymidine incorporation (I50%) of canine glioma cells; format: cell-based; conditions: Canis lupus familiaris, Glioma cell
Procedure: as §3
Estimates of the I50% of the various drugs tested on thymidine incorporation of canine glioma cells in culture.

[5] = system: canine glioma cells; test: canine glioma generation times, Compound IIe'; format: cell-based
Procedure: The cells were harvested every 72 hours after the controls had reached 85% confluency. Generation time (Tg) was determined as the number of: hours required for the cell population to double.
Mean of triplicate determinations. Canine glioma cells were grown under conditions to promote exponential growth characteristics; 2×10^5cells in a T-25 flask. The cells were harvested every 72 hours after the controls had reached approximately 85% confluency. The drug was added at the initiation of culture in DMSO, the control cultures had just DMSO. The drug concentration was adjusted with DMSO so that the final concentration of DMSO was always 0.5%.

[6] = system: human colon carcinoma cell line (LS-174); test: LS-174 generation times, Compound IIe'; format: cell-based
Procedure: The procedure of Example VA, above, was repeated except a human colon carcinoma cell line (LS-174) was used instead of the canine glioma cell line.
Mean of triplicate determinations. LS-174 cells (human colon carcinoma) were grown under conditions to promote exponential growth characteristics; 2×10^5 cells in a T-25 flask. The cells were harvested every 72 hours after the controls had reached approximately 85% confluency. The drug was added at the initiation of culture in DMSO, the control cultures had just DMSO. The drug concentration was adjusted with DMSO so that the final concentration of DMSO was always 0.5%.

[7] = biological target: T1, HMGCoA reductase (Rattus norvegicus, UniProt P51639); test: inhibition of rat liver HMGCoA reductase activity; format: biochemical; design: from tissue; host or cells: rat liver; conditions: read-out: IC50 HMG-CoA reductase
T1 sequence (P51639 1-887): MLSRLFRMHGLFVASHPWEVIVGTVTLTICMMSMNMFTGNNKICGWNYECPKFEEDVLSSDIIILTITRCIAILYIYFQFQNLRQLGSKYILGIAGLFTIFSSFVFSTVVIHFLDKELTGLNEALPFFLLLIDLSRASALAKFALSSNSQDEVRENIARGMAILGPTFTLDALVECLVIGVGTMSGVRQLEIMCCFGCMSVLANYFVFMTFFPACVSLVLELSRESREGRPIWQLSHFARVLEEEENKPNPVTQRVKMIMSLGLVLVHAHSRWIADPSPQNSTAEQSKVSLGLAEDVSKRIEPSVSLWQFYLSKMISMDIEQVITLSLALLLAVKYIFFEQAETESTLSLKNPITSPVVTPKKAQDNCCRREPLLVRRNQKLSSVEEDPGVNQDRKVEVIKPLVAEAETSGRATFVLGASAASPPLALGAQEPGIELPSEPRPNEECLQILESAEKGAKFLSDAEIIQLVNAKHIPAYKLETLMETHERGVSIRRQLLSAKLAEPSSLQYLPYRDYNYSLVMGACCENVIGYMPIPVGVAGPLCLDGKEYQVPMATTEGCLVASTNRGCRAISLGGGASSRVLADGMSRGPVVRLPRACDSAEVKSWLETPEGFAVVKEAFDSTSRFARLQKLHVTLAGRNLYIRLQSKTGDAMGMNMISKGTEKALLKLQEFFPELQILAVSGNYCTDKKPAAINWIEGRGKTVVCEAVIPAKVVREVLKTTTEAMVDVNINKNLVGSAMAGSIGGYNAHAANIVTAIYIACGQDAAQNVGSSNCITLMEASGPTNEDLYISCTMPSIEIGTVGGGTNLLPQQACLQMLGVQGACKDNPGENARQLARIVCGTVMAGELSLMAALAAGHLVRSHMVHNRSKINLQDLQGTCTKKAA
Description: reductase activity; data obtained according to Example IA.

[8] = biological target: T1, HMGCoA reductase; test: HMG-CoA reductase inhibition, ED50; format: in vivo; design: from tissue; host or cells: whole animal (in vivo dose in μg/kg); conditions: HMG-CoA reductase inhibitor
[9] = biomodulator assay (general); conditions: in words
Description: All biomodulators will have at least the following effects, which can be measured as indicated above:
a. Biomodulators cause, at a concentration in the general range of 100 pM-1 μm, the differentiation of lymphocytes. This differentiation can be detected by, for example, the increased production of specific and non-specific antibodies in response to the presence of biomodulator in the culture medium, e.g., according to the HPBL method discussed above in C, or the alteration in the class of antibodies being produced by a cell line, e.g., from IgM to IgG, e.g., according to the method disclosed in the same reference.
b. Biomodulators cause, at a concentration in the general range of 100 pM-1 μm, the alteration of the cell surface oligosaccharide display of IMR-90 cells in culture as discussed in A. above.
Activity in both of these assays is a necessary and sufficient measure of whether or not a given substance is a biomodulator, as defined herein.

[10] = system: TNP-Ficoll; test: in vivo antibody (PFC) response to T-independent antigen TNP-Ficoll; design: species or system mouse; conditions: in words
Procedure: In this case both IgM and IgG hapten specific responses were recorded as well as non-antigen specific plaque responses (Ig-PFC) using a Protein A coated red blood cell target.
The TNP-Ficoll antigen is administered as the SRBC antigen was above, by i.p. injection and the response assessed by conjugating the TNP hapten directly to the SRBC target, thus obviating any potential "carrier" effect. […] In this case, a third experimental parameter has been added to the study, the production of non-specific immunoglobulin (Ig-PFC). This parameter provides information on the general status of the humoral response regardless of antigen specificity. The TNP-Ficoll antigen does elicit a modest Ig-PFC response but little if any IgG specific response. […] In this case there is a very large specific and non-specific augmentation.

[11] = system: human peripheral blood leukocytes (HPBLs); test: HPBL plaque forming cell (PFC) assay / IgG production in vitro (differentiation); format: cell-based
Description: as §1, §2
Human peripheral blood leukocytes were cultured in a standard tissue culture medium. Aliquots of these cultured cells (1,000,000 cells/ml medium) were cultured for 6 hours, and the specified amount of Formula II compound was added; the cells were then cultured for an additional 90 hours. Sheep red blood cells (SRBC) conditioned with class-specific (IpG) goat anti-human antiserum (1:400) for 2 hours; then guinea pig complement (2%) for 2 hours were conjugated to Protein A as described in detail in Radioimmunoimaging and Radioimmunotherapy, Eds.

[12] = system: canine glioma (CG) specific IgG antibody; test: CG-specific antibody (IgG) titer in a dog; format: in vivo
[13] = system: CG tumor; test: chromium-release cell-mediated lympholysis vs. CG tumor in a dog; format: in vivo
Description: Cellular immune response reflected the results reported in III, 1 above. […] This also is in the absence of CG antigen exposure. […] Thus, both cellular and humoral immunity appear to be modulatable in the absence of antigen by the compounds of the instant invention.

[14] = system: canine glioma cells; test: in vivo inhibition of canine glioma in nude rats, compound IIc'
Procedure: Fifty four nude rats (Harlan) were injected in the right flank with 5×10^6 canine glioma cells. Animals at the time of injection were between 52 and 63 days old and weighed approximately 200 g. The rats were divided into 7 groups, each group having a total number of 7 rats except for the control group, which totalled 12 animals. Compound IIc' was administered to the experimental animals at one of the following doses for each experimental group: 100 μg/kg, 10 μg/kg, 1 μg/kg, 0.1 μg/kg, 0.01 μg/kg and 0.001 μg/kg (phosphate buffer saline, M, W, F, I.P.). The control animals were injected with PBS (phosphate buffered saline) only. The volume of each injection was 100 μl. The injections of drug were simultaneously begun with injection of tumor cells. The animals were injected with the appropriate dosage of drug ([…]) by I.P. injection and tumor length, width and depth were measured using caliphers each Monday, Wednesday and Friday (M, W, F) morning for approximately 9 weeks. Each point on the graphs represents the total of all rats for each group. […] The data were normalized for the greater number of control animals by multiplying the total tumor volume for the control animals by 7/12.

Compound: CC(C)OC(=O)C[C@H](O)C[C@@H](O)/C=C/c1c(C(C)C)nc(-c2ccccc2)n1-c1ccc(F)cc1 (relative stereo) [Compound IIe']
- Proliferation ((3H) thymidine incorporation into DNA) [1]: 0.85
- IC50 ([2]; 24 h): 750 nM
- IC50 ([2]; 72 h): 800 nM
- IC50 ([2]; 96 h): 900 nM
- IC50 ([3]; 24 h): 75 nM
- IC50 ([3]; 72 h): 70 nM
- IC50 ([3]; 96 h): 75 nM
- IC50 ([4]; 24 h, first four lines, read-out: I50% (thymidine incorporation)): 50 nM
- IC50 ([4]; 48 h, first four lines, read-out: I50% (thymidine incorporation)): 75 nM
- IC50 ([4]; 48 h, second four lines, read-out: I50% (thymidine incorporation)): 75 nM
- IC50 ([4]; 72 h, first four lines, read-out: I50% (thymidine incorporation)): 80 nM
- IC50 ([4]; 96 h, first four lines, read-out: I50% (thymidine incorporation)): 50 nM
- IC50 ([4]; 96 h, second four lines, read-out: I50% (thymidine incorporation)): 50 nM
- IC50 ([4]; text to Table V, read-out: I50% (thymidine incorporation into DNA)): 50 to 80 nM
- IC50 ([4]; 24 h, second four lines, read-out: I50% (thymidine incorporation)): 100 nM
- IC50 ([4]; 72 h, second four lines, read-out: I50% (thymidine incorporation)): 30 nM
- % Change of Tg ([5]; 10 nM, 72 × 3 h): 180%
- Tg ([5]; 10 nM, 72 h, control 18.6): 25.3 h
- contact inhibition ([5]; in words): showed evidence of contact inhibition as the cells approached confluency
- Tg ([6]; 10 nM, 72 h, control 26.5): 84.9 h
- generation time after drug withdrawal ([6]; two passages, in words): the generation time returned to control levels
- IC50 [7]: 3 nM
- ED50 [8]: 0.025 mg/kg

Compound: Cc1c(/C=C/C(O)CC(O)CC(=O)O)ccc2c1C(O)CC(C)C2 (centres unmarked) [colletruncoic acid]
- biomodulator activity [9]: has been shown to have biomodulator activity

Compound: Dextran
- PFC response to TNP-Ficoll [10]: some stimulatory effect; also recorded: marked cellular proliferation but little differentiative response

Compound: CC(C)OC(=O)C[C@H](O)C[C@@H](O)/C=C/c1c(C(C)C)nc(-c2ccccc2)n1-c1ccc(F)cc1 [Compound IIc']
- Inhibitory Concentration (inhibiting nonspecific IgG production below normal production) ([11]; HPBL): none found
- Stimulation of IgG Production, Concentration ([11]; HPBL): 100 pM
- optimal dose in vitro, immune stimulation ([11]; HPBL assay): 100 pM
- Stimulation of IgG Production, Percent ([11]; HPBL, at the stimulating concentration): 6200%
- Proliferation ((3H) thymidine incorporation into DNA) [1]: 1.2
- antibody titer versus control without antigen ([12]; in words): titers of antibody increased over the control antibody titer significantly
- IC-50% Titer (Anti-CG) ([12]; treated 2+ months, tumor regressed): Baseline Values
- slope M of Y = MX + B (linear regression of toxicity) ([13]; December 14, 1987): 0.05
- slope M of Y = MX + B (linear regression of toxicity) ([13]; February 9, 1988): 0.35
- slope M of Y = MX + B (linear regression of toxicity) ([13]; February 17, 1988): 0.75
- slope M of Y = MX + B (linear regression of toxicity) ([13]; March 31, 1988): 0.05
- CML ([13]; additional 2 months of administration, no CG antigen, in words): significant increase in CML
- CG-specific CML ([13]; after 14 days, I.P., M, W, F, in words): only baseline levels of CG-specific CML were present
- optimal dose in vivo, equivalent concentration with uniform distribution ([14]; 100 ng/kg): 250 pM
- cytostatic activity at other doses ([14]; 10 and 100 μg/kg, 1 ng/kg, in words): Little or no cytostatic activity
- most effective dosage for inhibition of canine glioma ([14]; I.P., M, W, F): 100 ng/kg
